{"source": "paper PMC13155482", "about": "(Science Advances, 2025)", "key": {"5-HT1A [1]": {"molecular_target": "T1, 5-HT1A (Homo sapiens, UniProt P08908)", "T1 sequence (P08908 1-422)": "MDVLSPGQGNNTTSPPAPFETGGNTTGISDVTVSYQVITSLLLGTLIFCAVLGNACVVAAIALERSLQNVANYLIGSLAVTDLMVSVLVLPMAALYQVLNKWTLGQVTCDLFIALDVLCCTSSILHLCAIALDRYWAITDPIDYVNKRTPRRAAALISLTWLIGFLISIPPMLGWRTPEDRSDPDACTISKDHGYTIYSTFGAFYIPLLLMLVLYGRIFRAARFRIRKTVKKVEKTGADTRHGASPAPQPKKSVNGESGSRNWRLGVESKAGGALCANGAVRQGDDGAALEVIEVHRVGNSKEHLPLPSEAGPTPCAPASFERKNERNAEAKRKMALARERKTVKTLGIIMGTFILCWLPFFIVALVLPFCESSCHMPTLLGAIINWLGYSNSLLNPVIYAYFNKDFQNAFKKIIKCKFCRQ", "test": "5-HT1A-mediated cAMP inhibition", "format": "cell-based"}, "5-HT1A F112A [2]": {"molecular_target": "T2, 5-HT1A F112A (Homo sapiens, UniProt P08908, F112A)", "T2 sequence (P08908 1-422 F112A)": "T1 sequence (P08908 1-422) with F112A", "conditions": "Goa"}, "5-HT1A S199A [3]": {"molecular_target": "T3, 5-HT1A S199A (Homo sapiens, UniProt P08908, S199A)", "T3 sequence (P08908 1-422 S199A)": "T1 sequence (P08908 1-422) with S199A", "conditions": "Gz"}, "5-HT1A [4]": {"molecular_target": "T1, 5-HT1A", "test": "BRET Gi1 activation at WT 5-HT1A", "conditions": "Gi1, WT 5-HT1A, compared to antagonist methiothepin"}, "5-HT1A S199A [5]": {"molecular_target": "T3, 5-HT1A S199A", "test": "cell-based", "conditions": "EC50, Goa"}, "5-HT1A S199A [6]": {"molecular_target": "T3, 5-HT1A S199A", "conditions": "Gi1, 5-HT1A S199A"}, "5-HT1A [7]": {"molecular_target": "T1, 5-HT1A", "test": "BRET Goa activation at WT 5-HT1A"}, "5-HT1A, Gi1 D315P": {"molecular_target": "T4, 5-HT1A, Gi1 D315P (Homo sapiens, UniProt P08908)", "T4 sequence (P08908 1-422)": "T1 sequence (P08908 1-422)", "conditions": "activity comparable to vehicle"}, "5-HT1A I189A": {"molecular_target": "T5, 5-HT1A I189A (Homo sapiens, UniProt P08908, I189A)", "T5 sequence (P08908 1-422 I189A)": "T1 sequence (P08908 1-422) with I189A", "conditions": "5-HT1A I189 mutant"}, "5-HT1A A222V": {"molecular_target": "T6, 5-HT1A A222V (Homo sapiens, UniProt P08908, A222V)", "T6 sequence (P08908 1-422 A222V)": "T1 sequence (P08908 1-422) with A222V", "conditions": "Goa"}, "5-HT1A F112A [8]": {"molecular_target": "T2, 5-HT1A F112A", "conditions": "Gi1, 5-HT1A F112A"}, "5-HT1A F112A [9]": {"molecular_target": "T2, 5-HT1A F112A", "conditions": "Gz"}}, "note": "Substitutions are numbered along the chain they refer to. Where two headings read alike, the source gives them in different places."}
{"smiles": "CN1CCN2c3ccccc3Cc3ccccc3C2C1", "note": "(stereo not drawn) [mianserin]", "values": [{"measurement": "agonist character in cAMP inhibition", "setting": "5-HT1A [1]; HEK293T, compared to 5-HT", "result": "nearly a full agonist"}]}
{"smiles": "CN1CC2c3ccccc3Oc3ccc(Cl)cc3C2C1", "note": "(stereo not drawn) [Asenapine]", "values": [{"measurement": "effect of F112A mutation on efficacy", "setting": "5-HT1A F112A [2]", "result": "seemingly ablates"}, {"measurement": "activation", "setting": "5-HT1A S199A [3]", "result": "no significant activity"}, {"measurement": "agonist character in cAMP inhibition", "setting": "5-HT1A [1]", "result": "partial agonists"}, {"measurement": "Gi1 activation", "setting": "5-HT1A [4]", "result": "no significant activity"}, {"measurement": "EC50", "setting": "5-HT1A S199A [5]", "result": 6.84, "unit": "nM"}, {"measurement": "activation", "setting": "5-HT1A S199A [6]", "result": "no significant activity"}, {"measurement": "EC50", "setting": "5-HT1A [7]", "result": 9.12, "unit": "nM"}, {"measurement": "signaling through Gi1 D315P", "setting": "5-HT1A, Gi1 D315P", "result": "loss of concentration-dependent agonist signaling"}, {"measurement": "effect of I189 mutation on activity", "setting": "5-HT1A I189A", "result": "ablates asenapine activity"}, {"measurement": "Emax (%WT 5-HT)", "setting": "5-HT1A A222V", "result": 64.7, "unit": "%WT 5-HT"}]}
{"smiles": "O=C1CC2(CCCC2)CC(=O)N1CCCCN1CCN(c2ncccn2)CC1", "note": "[Buspirone]", "values": [{"measurement": "effect of F112A mutation on efficacy", "setting": "5-HT1A F112A [2]", "result": "seemingly ablates efficacy"}, {"measurement": "effect of F112A mutation on efficacy", "setting": "5-HT1A F112A [8]", "result": "seemingly ablates efficacy"}, {"measurement": "effect of F112A mutation on efficacy", "setting": "5-HT1A F112A [9]", "result": "seemingly ablates efficacy"}]}
{"smiles": "O=C1CC2(CCCC2)CC(=O)N1CCCCN1CCN(c2nsc3ccccc23)CC1", "note": "[Tiospirone]", "values": [{"measurement": "agonist character in cAMP inhibition", "setting": "5-HT1A [1]; HEK293T, compared to 5-HT", "result": "partial agonists"}]}
